This passage reports Delta G and Kd results from ChEMBL document CHEMBL1149118, “Validation of molecular docking calculations involving FGF-1 and FGF-2” (J Med Chem, 2004).

SMILES strings stand for the structures.

For assay [1], the target named is T1, Fibroblast growth factor 1 (Homo sapiens, UniProt P05230). In words: Binding affinity for Fibroblast growth factor 1.
The target in assay [2] is T1, Fibroblast growth factor 1. The experiment in a line: Dissociation constant for Fibroblast growth factor 1.
In assay [3] the target is T2, Fibroblast growth factor 2 (Homo sapiens, UniProt P09038). The experiment in a line: Dissociation constant for Fibroblast growth factor 2 (None observed).
Assay [4] deals with T2, Fibroblast growth factor 2. The experiment in a line: Binding affinity for Fibroblast growth factor 2.
Assay [5] concerns the target T2, Fibroblast growth factor 2. The experiment in a line: Dissociation constant for Fibroblast growth factor 2.
Assay [6] concerns the target T2, Fibroblast growth factor 2. The experiment in a line: Dissociation constant for Fibroblast growth factor 2 (None Observed).

T2 sequence (P09038 143-288 limits assumed): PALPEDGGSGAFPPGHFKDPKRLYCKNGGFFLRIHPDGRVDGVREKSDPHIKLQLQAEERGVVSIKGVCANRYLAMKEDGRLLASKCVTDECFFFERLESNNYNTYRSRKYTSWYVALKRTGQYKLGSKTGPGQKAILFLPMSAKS
T1 sequence (P05230 whole entry): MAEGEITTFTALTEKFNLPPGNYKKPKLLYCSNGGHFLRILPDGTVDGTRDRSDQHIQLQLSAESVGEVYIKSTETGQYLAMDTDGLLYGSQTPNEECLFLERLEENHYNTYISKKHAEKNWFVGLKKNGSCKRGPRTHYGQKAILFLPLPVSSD

On to `C=CCOC1C(C)OC(OC)C(OS(=O)(=O)O)C1OS(=O)(=O)O` (configuration not stated), for which, in assay [1], the Delta G is -3.92 kcal/mol. Moreover, the Kd – broadly, the constant that tells how readily two partners part at equilibrium – in assay [2] is 1340 µM; in assay [3], “None observed”.

With `COC1C(OCc2ccccc2)C2COC(O2)C1OS(=O)(=O)O` (configuration not stated), the Delta G was -2.86 kcal/mol in assay [4] and -4.79 kcal/mol in assay [1]. Also, the Kd in assay [5] amounted to 8020 µM; in assay [2] it was 307 µM.

On to `O=C(CN(Cc1ccccc1)C(=O)C1OC(OS(=O)(=O)O)C(OS(=O)(=O)O)C(OS(=O)(=O)O)C1OS(=O)(=O)O)NC1CCCCC1` (configuration not stated), for which the Delta G is -4.67 kcal/mol in assay [4] and -5.35 kcal/mol in assay [1]. In addition, the results for the Kd in assay [5] and in assay [2] were 375 µM and 120 µM, respectively.

`O=S(=O)(O)OC[C@@H]1O[C@H](OS(=O)(=O)O)[C@H](OC2O[C@@H](COS(=O)(=O)O)[C@@H](S(=O)(=O)O)[C@H](O[C@H]3O[C@@H](COS(=O)(=O)O)[C@@H](OS(=O)(=O)O)[C@H](OS(=O)(=O)O)[C@H]3OS(=O)(=O)O)[C@H]2OS(=O)(=O)O)[C@@H](OS(=O)(=O)O)[C@@H]1OS(=O)(=O)O` (some centres not stated): the Delta G in assay [4] was -8.08 kcal/mol; in assay [1] it was -11.1 kcal/mol. The figures for the Kd in assay [5] and in assay [2] were 1.18 µM and 0.0078 µM, respectively.

For `O=S(=O)(O)OC[C@@H]1O[C@H](OS(=O)(=O)O)[C@H](OS(=O)(=O)O)[C@@H](OS(=O)(=O)O)[C@@H]1OS(=O)(=O)O`, the Delta G was -5.19 kcal/mol in assay [4] and -6.04 kcal/mol in assay [1]. Further, the results for the Kd in assay [5] and in assay [2] were 155 µM and 37.5 µM, respectively.

As for `O=S(=O)(O)c1ccc2c(S(=O)(=O)O)cc(S(=O)(=O)O)cc2c1` [NAPHTHALENE TRISULFONATE], the figures for the Delta G in assay [4] and in assay [1] were -4.98 kcal/mol and -4.53 kcal/mol, respectively. Besides, the results for the Kd in assay [5] and in assay [2] were 223 µM and 474 µM, respectively.

Take `O=S(=O)(O)C[C@@H]1[C@H](OS(=O)(=O)O)O[C@H](OS(=O)(=O)O)[C@H](O[C@H]2O[C@@H](COS(=O)(=O)O)[C@@H](OS(=O)(=O)O)[C@H](OS(=O)(=O)O)[C@H]2OS(=O)(=O)O)[C@H]1OS(=O)(=O)O`: the Delta G in assay [4] is -6.24 kcal/mol; in assay [1] it was -9.39 kcal/mol. In addition, the results for the Kd in assay [5] and in assay [2] were 26.7 µM and 0.13 µM, respectively.

On to `O=S(=O)(O)OC[C@@H]1O[C@@H](O[C@H]2[C@H](OS(=O)(=O)O)[C@H](OS(=O)(=O)O)C(OS(=O)(=O)O)O[C@H]2COS(=O)(=O)O)[C@@H](OS(=O)(=O)O)[C@H](OS(=O)(=O)O)[C@H]1OS(=O)(=O)O` (some centres not stated), for which the Delta G is -6.65 kcal/mol in assay [4] and -8.07 kcal/mol in assay [1]. Further, the Kd came out at 13.3 µM in assay [5] and 1.2 µM in assay [2].

`O=C(O)c1cc(/N=N/c2ccc(S(=O)(=O)Nc3ccccn3)cc2)ccc1O` [SULFASALAZINE]: the Delta G in assay [1] was -4.38 kcal/mol. In addition, the Kd result in assay [6] is “None Observed”; in assay [2], 609 µM.

In the case of `CO[C@@H]1O[C@@H](COS(=O)(=O)O)[C@@H](O[C@@H]2O[C@@H](COS(=O)(=O)O)[C@H](OS(=O)(=O)O)[C@H](OS(=O)(=O)O)[C@@H]2OS(=O)(=O)O)[C@H](OS(=O)(=O)O)[C@@H]1OS(=O)(=O)O`, the Delta G in assay [4] was -6.53 kcal/mol; in assay [1], -8.1 kcal/mol. The Kd in assay [5] is 16.2 µM; in assay [2] it was 1.15 µM.

On to `CO[C@@H]1O[C@@H](COS(=O)(=O)O)[C@@H](OS(=O)(=O)O)[C@H](OC(=O)c2ccccc2)[C@@H]1OC(=O)c1ccccc1`, for which the Delta G in assay [1] was -4.14 kcal/mol. In addition, the Kd in assay [2] was 921 µM; in assay [3], “None observed”.

As for `O=S(=O)(O)OC[C@H]1OCC[C@@H](OCc2ccccc2)C1OS(=O)(=O)O` (some centres not stated), the Delta G is -3.13 kcal/mol in assay [4] and -3.36 kcal/mol in assay [1]. In addition, the Kd in assay [5] was found to be 5100 µM; in assay [2], 3410 µM.

For `O=S(=O)(O)OC[C@@H]1O[C@H](O[C@H]2[C@H](OS(=O)(=O)O)[C@H](OS(=O)(=O)O)C(OS(=O)(=O)O)O[C@H]2COS(=O)(=O)O)[C@@H](OS(=O)(=O)O)[C@H](OS(=O)(=O)O)[C@H]1OS(=O)(=O)O` (some centres not stated), the Delta G is -7.09 kcal/mol in assay [4] and -8.54 kcal/mol in assay [1]. Further, the Kd in assay [5] was determined as 6.3 µM; in assay [2], 0.54 µM.

Turning to `O=S(=O)(O)C[C@@H]1[C@@H](O[C@]2(COS(=O)(=O)O)O[C@H](COS(=O)(=O)O)[C@@H](OS(=O)(=O)O)[C@@H]2OS(=O)(=O)O)O[C@@H](CS(=O)(=O)O)[C@@H](OS(=O)(=O)O)[C@H]1OS(=O)(=O)O`, the figures for the Delta G in assay [4] and in assay [1] were -7.17 kcal/mol and -8.36 kcal/mol, respectively. The figures for the Kd in assay [5] and in assay [2] were 5.5 µM and 0.74 µM, respectively.

Take `[N-]=[N+]=NCC1OC(OS(=O)(=O)O)C(OS(=O)(=O)O)C(OS(=O)(=O)O)C1OS(=O)(=O)O` (configuration not stated): the values for the Delta G in assay [4] and in assay [1] were -4.89 kcal/mol and -4.73 kcal/mol, respectively. For the same compound, the Kd in assay [5] amounted to 258 µM; in assay [2], 340 µM.

Regarding `COC1OC(C)C(OCc2ccccc2)C(OS(=O)(=O)O)C1OS(=O)(=O)O` (configuration not stated), the Delta G in assay [4] is -4.91 kcal/mol; in assay [1], -4.73 kcal/mol. In addition, the Kd in assay [5] was 249 µM; in assay [2], 338 µM.

Turning to `CO[C@H]1O[C@@H](COCC(=O)N(CCOS(=O)(=O)O)CC(=O)NC2CCCCC2)[C@@H](OS(=O)(=O)O)[C@H](OS(=O)(=O)O)[C@H]1OS(=O)(=O)O`, the Delta G in assay [4] is -4.44 kcal/mol; in assay [1] it was -4.8 kcal/mol. The Kd in assay [5] turned out to be 550 µM; in assay [2], 300 µM.

`O=S(=O)(O)OC[C@H]1OCC[C@@H](OCCCOc2ccccc2)C1OS(=O)(=O)O` (some centres not stated): the values for the Delta G in assay [4] and in assay [1] were -2.9 kcal/mol and -3.39 kcal/mol, respectively. For the same compound, the results for the Kd in assay [5] and in assay [2] were 7500 µM and 3250 µM, respectively.

`CO[C@H]1O[C@H](COS(=O)(=O)O)[C@@H](OS(=O)(=O)O)[C@H](OS(=O)(=O)O)[C@@H]1OS(=O)(=O)O`: the Delta G in assay [4] was -4.72 kcal/mol; in assay [1] it was -5.31 kcal/mol. Besides, the Kd in assay [5] worked out at 343 µM; in assay [2] it was 127 µM.

`CO[C@@H]1CCO[C@H](COS(=O)(=O)O)C1OS(=O)(=O)O` (some centres not stated): the Delta G in assay [4] was -2.39 kcal/mol; in assay [1], -3.04 kcal/mol. Besides, the Kd was 17400 µM in assay [5] and 5940 µM in assay [2].
